In PMC11459923, “Identification of novel and potent inhibitors of SARS-CoV-2 main protease from DNA-encoded chemical libraries” (Antimicrobial Agents and Chemotherapy, 2024):
Where two headings read alike, the source gives them in different places.

Legend:
M^pro = details: read-out: IC50 M^pro; cited from earlier work
in vitro [1] = details: human, Caco-2
SARS-CoV-2 = assay: microbe, parasite or virus in culture; assay type: cell-based
SARS-CoV-2 M^pro [2] = target: T1, SARS-CoV-2 M^pro (Severe acute respiratory syndrome coronavirus 2, UniProt P0DTD1); assay: In vitro FRET enzymatic assay (screening at 1 µM and SAR IC50); assay type: biochemical; details: read-out: IC50 ± SEM
human cathepsin S = target: T2, human cathepsin S (Homo sapiens, UniProt P25774); assay: Counter assay screening, SensoLyte 440 cathepsin S kit; assay type: biochemical; details: for Inhibitory activity against human Cathepsin S: concentrations 50 to 0.00085 µM; for IC50: tested up to 50 µM
T2 construct: purchased Anaspec, Inc. SensoLyte 440 cathepsin S Assay Kit (catalogue number not given)

[3] = target: avi-tagged SARS-CoV-2 M^pro (Severe acute respiratory syndrome coronavirus 2, UniProt P0DTD1); assay type: binding
SARS-CoV-2 M^pro [4] = target: T1, SARS-CoV-2 M^pro; assay: Mpro protease activity assay (FRET, used for Table 1); assay type: biochemical
[5] = mouse; for Metabolic stability: microsomes
in vitro [6] = details: mouse, microsomes
[7] = human; for Metabolic stability: microsomes
in vitro [8] = details: human, microsomes
[9] = 75 nM M^pro, 10 µM substrate, 11-point series from 50 µM

T2 sequence (P25774 115-331): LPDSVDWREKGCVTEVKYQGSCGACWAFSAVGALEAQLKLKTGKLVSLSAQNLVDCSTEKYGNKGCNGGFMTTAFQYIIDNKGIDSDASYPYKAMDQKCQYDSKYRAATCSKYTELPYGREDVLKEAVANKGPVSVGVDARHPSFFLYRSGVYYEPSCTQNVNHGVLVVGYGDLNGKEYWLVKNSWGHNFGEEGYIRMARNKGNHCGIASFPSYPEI

Compound | Inhibitory activity against human Cathepsin S (human cathepsin S) | IC50 (human cathepsin S) | Enrichment score M^pro [3] | Enrichment score M^pro +GC376 [3] | IC50 (SARS-CoV-2 M^pro [4]; [9]) | IC50 M^pro (SARS-CoV-2 M^pro [4]; off-DNA synthesized DECL hits) | other results
CC(C)C[C@H](NC(=O)OCc1ccccc1)C(=O)N[C@@H](CC1CCNC1=O)C(O)S(=O)(=O)O (stereo partly drawn) [GC376] |  |  |  |  |  |  | IC50 (M^pro): 150 nM
N#Cc1cc(C(=O)N[C@H](CC2CCC2)C(=O)N[C@H](CC(=O)N[C@H](Cc2ccncc2)C(=O)O)Cc2c[nH]c3ccccc23)ccn1 [MP1] |  |  |  |  |  |  | Papp A→B (in vitro [1]): 5.4 ×10⁻⁶ cm/s; Papp B→A (in vitro [1]): 2.5 ×10⁻⁶ cm/s; Protective effect on infected Calu-3 (CPE) (SARS-CoV-2): no protective effect; EC50 (SARS-CoV-2; Severe acute respiratory syndrome coronavirus 2, Calu-3, 48 h, read-out: EC50 inhibition of CPE development): 2300 nM
CCCC[C@@H](NC(=O)c1ccnc(C#N)c1)C(=O)N[C@H](CC(=O)N[C@H](Cc1ccncc1)C(=O)O)Cc1c[nH]c2ccccc12 [MP9] |  |  |  |  |  |  | IC50 (SARS-CoV-2 M^pro [2]): 139 ± 49 nM
CCCCC(NC(=O)CC(Cc1c[nH]c2ccccc12)NC(=O)C(Cc1ccccc1)NC(=O)c1ccnc(C#N)c1)C(=O)NC (stereo not drawn) [SLL07] | no inhibitory activity | > 50000 nM | 135,654 | 0 | 140 nM | low nanomolar range | 
CNC(=O)[C@@H](CSCNC(C)=O)NC(=O)c1ccc2cncc(-c3ccc(Oc4ccccc4)nc3)c2n1 [SLL08] | no inhibitory activity | > 50000 nM | 11,444 | 676 | > 50000 nM |  | 
CNC(=O)C(Cc1ccncc1)NC(=O)CC(Cc1c[nH]c2ccccc12)NC(=O)C(CC1CCC1)NC(=O)c1ccnc(C#N)c1 (stereo not drawn) [SLL11] | no inhibitory activity | > 50000 nM | 515,485 | 206,982 | 30 nM | low nanomolar range | In vitro half time [5]: 9 min; Metabolic stability [5]: low metabolic stability; microsomal CLint (in vitro [6]): 154 µL/min/mg; In vitro half time [7]: 10 min; Metabolic stability [7]: low metabolic stability; microsomal CLint (in vitro [8]): 139 µL/min/mg; IC50 (SARS-CoV-2 M^pro [4]; off-DNA synthesized DECL hits): ≤ 30 nM
CCCC[C@@H](NC(=O)c1ccnc(C#N)c1)C(=O)N[C@H](CC(=O)N[C@H](Cc1ccncc1)C(=O)NC)Cc1c[nH]c2ccccc12 [SLL12] | no inhibitory activity | > 50000 nM | 488,354 | 0 | 53 nM | low nanomolar range | In vitro half time [5]: 8 min; Metabolic stability [5]: low metabolic stability; microsomal CLint (in vitro [6]): 170 µL/min/mg; In vitro half time [7]: 11 min; Metabolic stability [7]: low metabolic stability; microsomal CLint (in vitro [8]): 131 µL/min/mg
